Data as given in patent US20220324868A1, “Pyrazolone-Fused Pyrimidine Compound, and Preparation Method and Use Therefor” (SHANGHAI PHARMACEUTICALS HOLDING CO., LTD., priority 2019, published 2022).
Counter-ions that a name gives are not always drawn. Like-named read-outs stand apart in the source and are kept apart here.

How the values were obtained:
[1] = target: T1, WEE1 kinase (Homo sapiens, UniProt P30291); assay: Inhibitory effect on WEE1 kinase in vitro (ELISA); type: biochemical; conditions: ATP concentration of Km (12 μM), WEE1 0.15 ng/μL, 60 min
T1 construct: purchased CarnaBiosciences, Inc. 05-177
T1 sequence (P30291 whole entry): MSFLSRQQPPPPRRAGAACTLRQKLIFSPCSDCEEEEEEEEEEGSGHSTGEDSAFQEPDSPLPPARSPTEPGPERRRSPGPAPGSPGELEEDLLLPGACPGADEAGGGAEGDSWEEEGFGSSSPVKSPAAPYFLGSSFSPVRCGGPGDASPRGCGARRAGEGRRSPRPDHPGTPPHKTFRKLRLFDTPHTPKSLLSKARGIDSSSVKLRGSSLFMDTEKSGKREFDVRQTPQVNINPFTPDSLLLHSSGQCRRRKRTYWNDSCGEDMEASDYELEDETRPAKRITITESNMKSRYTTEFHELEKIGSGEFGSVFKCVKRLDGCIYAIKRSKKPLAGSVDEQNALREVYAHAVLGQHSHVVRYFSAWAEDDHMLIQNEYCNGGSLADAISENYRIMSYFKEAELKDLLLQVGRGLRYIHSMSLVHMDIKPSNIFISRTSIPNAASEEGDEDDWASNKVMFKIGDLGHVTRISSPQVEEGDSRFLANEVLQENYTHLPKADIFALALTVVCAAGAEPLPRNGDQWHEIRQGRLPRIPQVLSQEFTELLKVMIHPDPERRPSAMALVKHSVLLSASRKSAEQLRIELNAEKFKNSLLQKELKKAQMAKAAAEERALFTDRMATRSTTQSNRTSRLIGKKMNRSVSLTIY
Experimental: I. Inhibitory Effect of Compound on WEE1 Kinase In Vitro
The tested compounds were screened on WEE1 kinase with ATP concentration of Km by ELISA. Three compounds were screened on WEE1 kinase to evaluate the kinase inhibitory activity of the tested compounds. In the detection process, the initial concentration of the tested compounds was all selected as 100 nM, and each compound was selected with 6 gradient dilution concentrations, the gradient dilution ratio was 4-fold, and two replicate wells were detected for each concentration, MK1775 was used as the standard control.
1. Coating substrate: 1) An appropriate volume of substrate storage solution protein tyrosinase (PTK) substrate (poly-Glu-Tyr) was taken, diluted 10 times with PBS, and the concentration was diluted from […]. The mixture was added to a high adsorption 96-well plate at 125 μL per well. The plate was placed in an incubator at 37° C. for overnight coating. 2) After 24 hours, the 96-well plate was taken out, the liquid in the 96-well plate was poured out, cleaned with washing buffer for 3 times, and the incubator at 37 was inverted and dried for 2 hours.
3. Enzyme reaction stage: 1) WEE1 kinase and ATP were prepared into 2× enzyme solution and 4× ATP solution respectively with 1× reaction buffer.
4. Reaction termination stage: 1) the reaction mixture in the plate was poured out, 200 μL of washing buffer was added to each well, and washed for 5 times; the primary antibody P-Tyr (PY99) (dilution ratio 1:2000) was added, 100 μL per well, at room temperature for 30 min. 2) The primary antibody in the plate was poured out, 200 μL of washing buffer was added to each well, and washed for 5 times; the second antibody Anti-mouse IgG HRP-linked Antibody (dilution ratio 1:2000) was added, 100 μL per well, at room temperature for 30 min. 3) The secondary antibody in the plate was poured out, washed 5 times with washing buffer, and TMB was added, 100 μL per well, and colored for 10-30 min, depending on the color depth. The reaction was terminated with 1N sulfuric acid before reading.
5. […] 2) Graphpad Prism 5.0 was used to fit Log(inhibitor) vs. response-Variable slope (four parameters) curves to the data, and the corresponding IC50 (half maximal inhibitory concentration) was calculated.

[2] = tested on: COLO 205 cells; assay: Proliferation inhibition of COLO 205 cells (Luminescence ATP Detection, ATPlite); type: cell-based; conditions: Homo sapiens; p53-deficient cell line COLO 205, 72 hours
Experimental: (§1) I. Proliferation Inhibitory of the Compound on COLO 205 Cells and Hela Cells.
(§2) COLO205 cells, purchased from SIBS, generation P11; Hela purchased from ATCC, generation P13.
(§3) Drug treatment of cells: on the third day of the experiment, microplates were removed from the incubator, 9× compound were added to each well in the microplate, and 5 μL was added to each well, wherein there were 2 replicate wells for each drug concentration and 10 drug concentrations for each compound. According to different cell lines, the initial concentration of each compound was different, after the completion, the microplate was cultured at 37° C. and 5% CO2 for 72 hours.
(§4) Data collection: The microplates were removed from the incubator and equilibrated at room temperature for 30 minutes. 100 μL of ATPlite reaction mixture after room temperature equilibrium was added to each well, the solution was shaken at room temperature of 1300 rpm for 2 minutes, and then the microplate was placed in a HERAEUS Multifuge X1R centrifuge at 2000 rpm for 1 minute; after equilibrium at room temperature for 10 minutes, the fluorescence signal value was measured on EnVision™.
(§5) Calculation of cell viability: Cell viability(%)=signal value of administration/signal value of controlx 100%. Graphpad Prism 5.0 was used to fit Log(inhibitor) vs. response-Variable slope (four parameters) curves to the fluorescence signal values at each concentration, and the corresponding IC50 (half maximal inhibitory concentration) was calculated.

[3] = tested on: Hela cells; assay: Proliferation inhibition of Hela cells (Luminescence ATP Detection, ATPlite); type: cell-based; conditions: Homo sapiens, 72 hours
Experimental: as §1, §2
Cell culture and inoculation: on the first day of the experiment, cells in normal culture were taken in their exponential growth state, digested and dispersed, the cell density was adjusted to 9×10^3 cells/mL, and 40 μL per well were inoculated into 384-well cell culture plates; after inoculation was completed, the microplates were placed at 37° C. and 5% CO2 for incubation.
as §3, with “second” for “third”
as §4, with “the” for “The”, “40” for “100”
as §5

IC50 ([1]; read-out: WEE1 IC50) | IC50 [2] | IC50 [3] | Structure (SMILES) | IC50 ([1]; WEE1 IC50, nM)
2.87 nM | 614 nM | 191 nM | C=CCn1c(=O)c2cnc(Nc3ccc(N4CCC5(CCN(C)CC5)CC4)cc3)nc2n1-c1ccc2c(n1)C(O)CC2 (stereo not drawn) [Compound I-9, 2-allyl-1-(7-hydroxy-6,7-dihydro-5H-cyclopenta[b]pyridin-2-yl)-6-((4-(9-methyl-3,9-diazaspiro[5.5]undecan-3-yl)phenyl)amino)-1,2-dihydro-3H-pyrazolo[3,4-d]pyrimidin-3-one] | 
3.85 nM |  |  | C=CCn1c(=O)c2cnc(Nc3ccc(N4CCOCC4)cc3)nc2n1-c1ccc2c(n1)C(C)(O)CC2 (stereo not drawn) [Compound I-15] | 
4.79 nM | 541 nM | 148 nM | C=CCn1c(=O)c2cnc(Nc3ccc(N4C[C@H]5CN(C)C[C@H]5C4)cc3)nc2n1-c1ccc2c(n1)C(C)(O)CCC2 (stereo partly drawn) [Compound I-32, 2-allyl-1-(8-hydroxy-8-methyl-5,6,7,8-tetrahydroquinolin-2-yl)-6-((4-((3aR,6aS)-5-methylhexahydropyrrolo[3,4-c]pyrrole-2(1H)-yl)phenyl)amino)-1,2-dihydro-3H-pyrazolo[3,4-d]pyrimidin-3-one] | 
4.41 nM |  |  | C=CCn1c(=O)c2cnc(Nc3ccc(N4CCC5(CC4)CN(C)C5)cc3)nc2n1-c1ccc2c(n1)C(O)CCC2 (stereo not drawn) [Compound I-20, 2-allyl-1-(8-hydroxy-5,6,7,8-tetrahydroquinolin-2-yl)-6-((4-(2-methyl-2,7-diazaspiro[3.5]nonan-7-yl)phenyl)amino)-1,2-dihydro-3H-pyrazolo[3,4-d]pyrimidin-3-one] | 
5.75 nM |  |  | C=CCn1c(=O)c2cnc(Nc3ccc(N4CCC5(CC4)CNC5)cc3)nc2n1-c1ccc2c(n1)C(O)CCC2 (stereo not drawn) [Compound I-21, 6-((4-(2,7-diazaspiro[3.5]nonan-7-yl)phenyl)amino)-2-allyl-1-(8-hydroxy-5,6,7,8-tetrahydroquinolin-2-yl)-1,2-dihydro-3H-pyrazolo[3,4-d]pyrimidin-3-one] | 
2.03 nM |  |  | C=CCn1c(=O)c2cnc(Nc3ccc(N4CCNCC4)cc3)nc2n1-c1ccc2c(n1)C(C)(O)CCC2 (stereo not drawn) [Compound I-18, 2-allyl-1-(8-hydroxy-8-methyl-5,6,7,8-tetrahydroquinolin-2-yl)-6-((4-(piperazin-1-yl)phenyl)amino)-1,2-dihydro-3H-pyrazolo[3,4-d]pyrimidin-3-one] | 
3.81 nM |  |  | C=CCn1c(=O)c2cnc(Nc3ccc(N4CCNCC4)cc3)nc2n1-c1ccc2c(n1)C(O)CCC2 (stereo not drawn) [Compound I-24] | 
6.6 nM |  |  | C=CCn1c(=O)c2cnc(Nc3ccc([C@H]4CC[C@@H](N(C)C)CC4)cc3)nc2n1-c1ccc2c(n1)C(O)CC2 (single isomer, unassigned) [Compound I-30-2] | 
 |  | 322 nM | C=CCn1c(=O)c2cnc(Nc3ccc(N4CC5(CC(N(C)C)C5)C4)cc3)nc2n1-c1ccc2c(n1)C(O)CC2 (stereo not drawn) [Compound I-42] | 
12.8 nM |  |  | C=CCn1c(=O)c2cnc(Nc3ccc(CCC(=O)N4CCCC4)cc3)nc2n1-c1ccc2c(n1)C(C)(O)CCC2 (stereo not drawn) [Compound I-17, 2-allyl-1-(8-hydroxy-8-methyl-5,6,7,8-tetrahydroquinolin-2-yl)-6-((4-(3-oxo-3-(pyrrolidin-1-yl)propyl)phenyl)amino)-1,2-dihydro-3H-pyrazolo[3,4-d]pyrimidin-3-one] | 

The remaining lines, values behind:

Structure (SMILES) | IC50 ([1]; read-out: WEE1 IC50) | IC50 [2] | IC50 [3] | IC50 ([1]; WEE1 IC50, nM)
C=CCn1c(=O)c2cnc(Nc3ccc(N4CCC5(CC4)CN(C)C5)cc3)nc2n1-c1ccc2c(n1)C(O)CC2 (stereo not drawn) [Compound I-8] | 11.3 nM |  |  | 
C=CCn1c(=O)c2cnc(Nc3ccc([C@H]4CC[C@@H](N(C)C)CC4)cc3)nc2n1-c1ccc2c(n1)C(C)(O)CCC2 (single isomer, unassigned) [Compound I-36-2] | 2.65 nM |  |  | 
C=CCn1c(=O)c2cnc(Nc3ccc([C@H]4CC[C@@H](N(C)C)CC4)cc3)nc2n1-c1ccc2c(n1)C(O)CC2 (single isomer, unassigned) [Compound I-30-1] | 5.86 nM |  |  | 
C=CCn1c(=O)c2cnc(Nc3ccc(N4CCC(N(C)C)CC4)cc3)nc2n1-c1ccc2c(n1)C(O)CCC2 (stereo not drawn) [Compound I-28, 2-allyl-6-((4-(4-(dimethylamino)piperidin-1-yl)phenyl)amino)-1-(8-hydroxy-5,6,7,8-tetrahydroquinolin-2-yl)-1,2-dihydro-3H-pyrazolo[3,4-d]pyrimidin-3-one formate] | 3.58 nM |  |  | 
C=CCn1c(=O)c2cnc(Nc3ccc(C4CCN(C)CC4)cc3)nc2n1-c1ccc2c(n1)C(O)CC2 (stereo not drawn) [Compound I-3] | 2.68 nM | 5150 nM | 434 nM | 
C=CCn1c(=O)c2cnc(Nc3ccc([C@H]4CC[C@@H](N(C)C)CC4)cc3)nc2n1-c1ccc2c(n1)C(C)(O)CCC2 (single isomer, unassigned) [Compound I-36-1] | 4.75 nM |  |  | 
C=CCn1c(=O)c2cnc(Nc3ccc(N4CCC5(CC4)CN(C)C5)cc3)nc2n1-c1ccc2c(n1)C(C)(O)CC2 (stereo not drawn) [Compound I-13, 2-allyl-1-(7-hydroxy-7-methyl-6,7-dihydro-5H-cyclopenta[b]pyridin-2-yl)-6-((4-(2-methyl-2,7-diazaspiro[3.5]nonan-7-yl)phenyl)amino)-1,2-dihydro-3H-pyrazolo[3,4-d]pyrimidin-3-one] | 3.41 nM | 886 nM | 190 nM | 
C=CCn1c(=O)c2cnc(Nc3ccc(N4CC5CC4CN5)cc3)nc2n1-c1ccc2c(n1)C(O)CCC2 (stereo not drawn) [Compound I-25] | 4.05 nM |  |  | 
C=CCn1c(=O)c2cnc(Nc3ccc(N4CC5CC4CN5)cc3)nc2n1-c1ccc2c(n1)C(C)(O)CC2 (stereo not drawn) [Compound I-12, 6-((4-(2,5-diazabicyclo[2.2.1]heptan-2-yl)phenyl)amino)-2-allyl-1-(7-hydroxy-7-methyl-6,7-dihydro-5H-cyclopenta[b]pyridin-2-yl)-1,2-dihydro-3H-pyrazolo[3,4-d]pyrimidin-3-one] | 3.68 nM |  |  | 
C=CCn1c(=O)c2cnc(Nc3ccc(N4CCN(C)CC4)cc3)nc2n1-c1ccc2c(n1)C(C)(O)CC2 (stereo not drawn) [Compound I-16, 2-allyl-1-(7-hydroxy-7-methyl-6,7-dihydro-5H-cyclopenta[b]pyridin-2-yl)-6-((4-(4-methylpiperazin-1-yl)phenyl)amino)-1,2-dihydro-3H-pyrazolo[3,4-d]pyrimidin-3-one] |  | 1620 nM | 316 nM | 3.99 nM
C=CCn1c(=O)c2cnc(Nc3ccc(N4C[C@H]5CN(C)C[C@H]5C4)cc3)nc2n1-c1ccc2c(n1)C(O)CC2 (stereo partly drawn) [Compound I-31] | 3.12 nM |  |  | 
C=CCn1c(=O)c2cnc(Nc3ccc(CN4CCN(C)CC4)cc3)nc2n1-c1ccc2c(n1)C(O)CC2 (stereo not drawn) [Compound I-7] | 9.69 nM |  | 2900 nM | 
C=CCn1c(=O)c2cnc(Nc3ccc(N4C[C@H]5CN(CC)C[C@H]5C4)cc3)nc2n1-c1ccc2c(n1)C(O)CC2 (stereo partly drawn) [Compound I-37] | 11.8 nM |  |  | 
C=CCn1c(=O)c2cnc(Nc3ccc(CCCN(C)C)cc3)nc2n1-c1ccc2c(n1)C(O)CC2 (stereo not drawn) [Compound I-43] | 4.91 nM |  |  | 
C=CCn1c(=O)c2cnc(Nc3ccc(N4CCC5(CCNC5)CC4)cc3)nc2n1-c1ccc2c(n1)C(O)CCC2 (stereo not drawn) [Compound I-22] | 3.55 nM |  |  | 
